Laboratory results reported in paper PMC8206283, “Three New Quinazoline-Containing Indole Alkaloids From the Marine-Derived Fungus Aspergillus sp. HNMF114” (Frontiers in Microbiology, 2021).

Target: T1, ryanodine receptor from Spodoptera frugiperda (sfRyR) (Spodoptera frugiperda, UniProt A0A4P8L6R5)
T1 construct: gene RyR
Experiment: time-lapse R-CEPIA1er [Ca2+]ER measurement in HEK cells stably expressing sfRyR (positive control)
Format: cell-based

T1 sequence (A0A4P8L6R5 entry or part of it): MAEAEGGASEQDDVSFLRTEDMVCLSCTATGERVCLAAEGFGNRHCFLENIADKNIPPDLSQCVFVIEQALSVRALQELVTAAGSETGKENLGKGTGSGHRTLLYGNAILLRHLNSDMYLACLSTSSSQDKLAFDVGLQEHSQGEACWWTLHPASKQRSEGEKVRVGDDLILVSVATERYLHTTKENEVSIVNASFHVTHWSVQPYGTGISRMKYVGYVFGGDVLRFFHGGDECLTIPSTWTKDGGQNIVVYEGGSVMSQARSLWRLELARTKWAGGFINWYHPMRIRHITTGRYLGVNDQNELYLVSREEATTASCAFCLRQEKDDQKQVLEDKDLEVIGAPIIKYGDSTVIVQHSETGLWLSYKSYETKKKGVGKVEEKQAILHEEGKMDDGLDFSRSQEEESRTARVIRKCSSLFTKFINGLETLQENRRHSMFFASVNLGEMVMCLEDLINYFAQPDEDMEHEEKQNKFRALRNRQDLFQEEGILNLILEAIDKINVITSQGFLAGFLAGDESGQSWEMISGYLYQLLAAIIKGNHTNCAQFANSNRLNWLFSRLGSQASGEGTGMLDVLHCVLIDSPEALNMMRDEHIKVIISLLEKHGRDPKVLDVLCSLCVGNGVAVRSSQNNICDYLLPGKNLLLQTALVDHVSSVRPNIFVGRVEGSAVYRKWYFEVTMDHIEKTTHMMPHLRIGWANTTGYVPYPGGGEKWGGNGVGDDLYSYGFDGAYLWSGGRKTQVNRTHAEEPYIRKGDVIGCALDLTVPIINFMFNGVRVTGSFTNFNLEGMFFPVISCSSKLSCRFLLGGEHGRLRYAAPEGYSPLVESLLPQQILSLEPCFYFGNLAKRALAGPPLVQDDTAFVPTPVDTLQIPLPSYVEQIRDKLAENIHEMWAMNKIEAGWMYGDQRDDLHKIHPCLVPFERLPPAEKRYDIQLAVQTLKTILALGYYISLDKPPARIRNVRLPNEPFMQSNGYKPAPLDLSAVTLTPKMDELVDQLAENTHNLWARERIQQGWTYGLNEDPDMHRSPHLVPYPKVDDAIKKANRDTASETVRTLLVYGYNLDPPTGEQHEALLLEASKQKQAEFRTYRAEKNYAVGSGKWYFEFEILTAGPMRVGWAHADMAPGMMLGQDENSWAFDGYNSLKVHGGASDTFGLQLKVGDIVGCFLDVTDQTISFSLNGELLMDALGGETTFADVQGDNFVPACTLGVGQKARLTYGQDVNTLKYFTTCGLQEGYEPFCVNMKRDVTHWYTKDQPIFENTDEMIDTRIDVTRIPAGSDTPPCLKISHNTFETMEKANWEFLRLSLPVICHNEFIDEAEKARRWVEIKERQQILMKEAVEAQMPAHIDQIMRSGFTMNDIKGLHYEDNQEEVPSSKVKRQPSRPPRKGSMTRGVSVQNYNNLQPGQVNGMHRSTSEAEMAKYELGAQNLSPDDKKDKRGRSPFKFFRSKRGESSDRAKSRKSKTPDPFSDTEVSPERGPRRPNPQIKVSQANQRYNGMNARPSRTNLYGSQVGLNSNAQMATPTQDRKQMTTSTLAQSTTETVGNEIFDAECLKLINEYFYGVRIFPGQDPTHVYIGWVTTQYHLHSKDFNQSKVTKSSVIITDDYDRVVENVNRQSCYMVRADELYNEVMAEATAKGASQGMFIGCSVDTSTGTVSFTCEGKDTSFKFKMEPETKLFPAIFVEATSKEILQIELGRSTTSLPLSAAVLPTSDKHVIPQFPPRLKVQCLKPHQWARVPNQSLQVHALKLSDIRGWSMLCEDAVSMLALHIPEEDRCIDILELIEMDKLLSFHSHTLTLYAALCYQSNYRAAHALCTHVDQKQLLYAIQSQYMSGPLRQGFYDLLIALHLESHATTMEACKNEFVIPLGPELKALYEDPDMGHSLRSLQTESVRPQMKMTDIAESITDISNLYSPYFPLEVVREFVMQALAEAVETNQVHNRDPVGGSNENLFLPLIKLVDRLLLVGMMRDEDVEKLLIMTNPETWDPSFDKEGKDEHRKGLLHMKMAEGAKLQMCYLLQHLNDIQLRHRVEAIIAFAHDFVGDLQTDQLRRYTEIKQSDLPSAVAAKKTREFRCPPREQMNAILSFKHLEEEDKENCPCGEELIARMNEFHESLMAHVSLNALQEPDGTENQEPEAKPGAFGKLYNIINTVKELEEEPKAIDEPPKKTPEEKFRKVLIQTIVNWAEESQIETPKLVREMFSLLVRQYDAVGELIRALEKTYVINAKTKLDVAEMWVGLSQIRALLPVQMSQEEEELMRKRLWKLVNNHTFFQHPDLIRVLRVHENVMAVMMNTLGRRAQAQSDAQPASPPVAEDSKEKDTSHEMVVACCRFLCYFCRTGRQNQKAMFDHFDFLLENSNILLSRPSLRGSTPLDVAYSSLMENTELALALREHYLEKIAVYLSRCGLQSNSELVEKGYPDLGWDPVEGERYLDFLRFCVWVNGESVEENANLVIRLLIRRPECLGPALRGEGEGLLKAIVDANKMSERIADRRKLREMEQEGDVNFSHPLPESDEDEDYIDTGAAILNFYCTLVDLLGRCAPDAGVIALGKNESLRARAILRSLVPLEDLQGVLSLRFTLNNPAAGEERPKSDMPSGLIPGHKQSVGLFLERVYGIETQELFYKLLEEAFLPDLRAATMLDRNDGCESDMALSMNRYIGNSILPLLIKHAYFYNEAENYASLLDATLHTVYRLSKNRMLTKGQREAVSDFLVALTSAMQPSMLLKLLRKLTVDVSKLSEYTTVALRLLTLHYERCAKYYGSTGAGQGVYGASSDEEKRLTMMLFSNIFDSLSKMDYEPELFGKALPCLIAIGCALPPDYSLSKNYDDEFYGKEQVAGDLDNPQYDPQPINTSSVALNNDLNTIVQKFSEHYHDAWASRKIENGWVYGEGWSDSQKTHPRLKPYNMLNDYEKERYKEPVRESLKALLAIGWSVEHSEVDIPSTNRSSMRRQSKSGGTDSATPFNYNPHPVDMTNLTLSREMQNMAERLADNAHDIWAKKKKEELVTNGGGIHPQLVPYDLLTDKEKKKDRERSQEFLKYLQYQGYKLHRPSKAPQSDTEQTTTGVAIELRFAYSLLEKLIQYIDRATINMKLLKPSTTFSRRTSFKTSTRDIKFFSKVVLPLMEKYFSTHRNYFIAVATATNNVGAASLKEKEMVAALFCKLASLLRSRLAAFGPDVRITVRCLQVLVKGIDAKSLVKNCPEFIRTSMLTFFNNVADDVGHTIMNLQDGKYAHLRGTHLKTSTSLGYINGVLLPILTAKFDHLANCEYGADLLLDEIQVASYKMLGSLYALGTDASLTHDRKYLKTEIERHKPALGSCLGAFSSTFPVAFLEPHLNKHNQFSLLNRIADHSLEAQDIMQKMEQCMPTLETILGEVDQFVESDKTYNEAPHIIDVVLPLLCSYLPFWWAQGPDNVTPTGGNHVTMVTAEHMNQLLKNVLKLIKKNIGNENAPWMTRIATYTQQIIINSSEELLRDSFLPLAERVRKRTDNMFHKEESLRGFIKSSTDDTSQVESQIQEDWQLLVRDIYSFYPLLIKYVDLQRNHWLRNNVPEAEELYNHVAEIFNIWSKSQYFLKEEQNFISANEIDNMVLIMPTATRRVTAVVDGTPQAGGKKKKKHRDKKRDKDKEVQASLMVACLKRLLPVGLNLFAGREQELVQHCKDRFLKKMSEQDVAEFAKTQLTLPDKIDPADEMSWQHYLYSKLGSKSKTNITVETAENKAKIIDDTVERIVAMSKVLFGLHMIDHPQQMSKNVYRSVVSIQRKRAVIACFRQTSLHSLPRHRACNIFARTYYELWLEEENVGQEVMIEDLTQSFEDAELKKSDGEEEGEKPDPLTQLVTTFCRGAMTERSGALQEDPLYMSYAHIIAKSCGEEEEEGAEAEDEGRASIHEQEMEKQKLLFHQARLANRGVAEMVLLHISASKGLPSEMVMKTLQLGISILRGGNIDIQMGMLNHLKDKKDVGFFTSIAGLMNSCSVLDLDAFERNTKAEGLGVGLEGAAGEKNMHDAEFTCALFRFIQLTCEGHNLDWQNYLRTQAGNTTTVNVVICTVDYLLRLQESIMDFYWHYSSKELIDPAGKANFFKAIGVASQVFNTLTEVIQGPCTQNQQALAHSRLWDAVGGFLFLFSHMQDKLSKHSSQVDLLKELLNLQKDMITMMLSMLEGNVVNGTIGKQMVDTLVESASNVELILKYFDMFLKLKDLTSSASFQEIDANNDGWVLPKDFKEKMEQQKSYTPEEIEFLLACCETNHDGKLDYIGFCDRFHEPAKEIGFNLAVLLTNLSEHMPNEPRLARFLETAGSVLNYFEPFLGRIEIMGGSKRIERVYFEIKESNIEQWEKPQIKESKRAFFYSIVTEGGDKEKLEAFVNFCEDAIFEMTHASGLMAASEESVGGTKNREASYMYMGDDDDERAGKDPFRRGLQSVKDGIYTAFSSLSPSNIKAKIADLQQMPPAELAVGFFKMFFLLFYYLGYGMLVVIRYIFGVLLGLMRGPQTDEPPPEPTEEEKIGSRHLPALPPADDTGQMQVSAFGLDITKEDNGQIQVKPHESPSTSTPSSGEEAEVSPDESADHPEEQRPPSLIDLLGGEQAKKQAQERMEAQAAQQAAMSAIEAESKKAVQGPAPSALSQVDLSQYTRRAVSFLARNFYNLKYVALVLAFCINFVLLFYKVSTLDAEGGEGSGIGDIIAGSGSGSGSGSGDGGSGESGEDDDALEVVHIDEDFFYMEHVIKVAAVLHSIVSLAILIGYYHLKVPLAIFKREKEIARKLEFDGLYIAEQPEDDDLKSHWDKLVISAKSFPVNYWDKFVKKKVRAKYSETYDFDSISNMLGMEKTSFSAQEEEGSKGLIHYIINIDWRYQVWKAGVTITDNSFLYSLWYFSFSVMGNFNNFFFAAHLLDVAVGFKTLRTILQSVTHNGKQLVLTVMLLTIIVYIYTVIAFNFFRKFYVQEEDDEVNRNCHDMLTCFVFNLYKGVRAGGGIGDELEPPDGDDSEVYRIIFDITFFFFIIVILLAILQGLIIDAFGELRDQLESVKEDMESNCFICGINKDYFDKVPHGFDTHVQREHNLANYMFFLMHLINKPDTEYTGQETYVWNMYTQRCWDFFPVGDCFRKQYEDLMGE

With CNC(=O)c1cc(Cl)cc(C)c1NC(=O)c1cc(Br)nn1-c1ncccc1Cl [chlo, chlorantraniliprole] the “time-lapse R-CEPIA1er [Ca2+]ER measurement in HEK cells stably expressing sfRyR” value was “their effect in intracellular Ca2 release is similar to that of the positive control chlo”.
